Assay results reported in patent US20050090428A1, “Porphyrins with virucidal activity” (priority 2002, published 2005).

Tests used:
HSV-1(F) or HSV-2(G) = experiment: In vitro HSV inactivation, plaque assay on Vero cells; type: cell-based, herpes simplex virus; settings: room temperature, in the dark, up to 60 minutes
Experimental: Either HSV-1(F) or HSV-2(G) (10^7 pfu) was mixed with 1 ml of porphyrin at the concentration indicated in Dulbecco's modified Eagle's medium (DME) with 1% newborn calf serum. All assays were performed in duplicate. All tubes were wrapped in foil to keep out light, and ambient room light was reduced as much as was practicable. Virus and porphyrin were incubated together at room temperature for times up to 60 minutes (Table 2). Following incubation, 10 fold serial dilutions were performed in DME with 1% newborn serum, using tubes wrapped in foil. Virus was diluted 20,000 fold and plated on Vero cells. Following a 2 hour incubation with the cells, the inoculum was removed and cells were overlaid with DME with 1% newborn calf serum and 0.2% human gamma globulin. Cells were fixed and stained, and plaques counted, 2 days after infection.

HIV-1 IIIB = experiment: Screening for virucidal activity against HIV-1 IIIB, MAGI cell assay; settings: for inhibition of HIV-1 IIIB (percent virus inactivated), screening assay: 50 μg/ml, 1 hr in the dark, diluted 10-fold, MAGI cells, without removal of free compound; for activity against HIV in words: MAGI screening assay, HIV-1 IIIB
[1] = biological target: T1, HIV-1 Env protein (HXB2 Env) (Human immunodeficiency virus type 1 group M subtype B, UniProt P04578); type: cell-based
T1 construct: expressed in transfected cells; host or cells: 293T cells transfected with pIIIenv3-1 plus pCMVTAT; cocultured with 3T3 cells expressing CD4 and CXCR4

89.6 Env = 89.6 Env (Human immunodeficiency virus type 1 group M subtype B, UniProt Q73372); type: cell-based, HIV-1
Chain of 89.6 Env (Q73372 32-719 limits assumed): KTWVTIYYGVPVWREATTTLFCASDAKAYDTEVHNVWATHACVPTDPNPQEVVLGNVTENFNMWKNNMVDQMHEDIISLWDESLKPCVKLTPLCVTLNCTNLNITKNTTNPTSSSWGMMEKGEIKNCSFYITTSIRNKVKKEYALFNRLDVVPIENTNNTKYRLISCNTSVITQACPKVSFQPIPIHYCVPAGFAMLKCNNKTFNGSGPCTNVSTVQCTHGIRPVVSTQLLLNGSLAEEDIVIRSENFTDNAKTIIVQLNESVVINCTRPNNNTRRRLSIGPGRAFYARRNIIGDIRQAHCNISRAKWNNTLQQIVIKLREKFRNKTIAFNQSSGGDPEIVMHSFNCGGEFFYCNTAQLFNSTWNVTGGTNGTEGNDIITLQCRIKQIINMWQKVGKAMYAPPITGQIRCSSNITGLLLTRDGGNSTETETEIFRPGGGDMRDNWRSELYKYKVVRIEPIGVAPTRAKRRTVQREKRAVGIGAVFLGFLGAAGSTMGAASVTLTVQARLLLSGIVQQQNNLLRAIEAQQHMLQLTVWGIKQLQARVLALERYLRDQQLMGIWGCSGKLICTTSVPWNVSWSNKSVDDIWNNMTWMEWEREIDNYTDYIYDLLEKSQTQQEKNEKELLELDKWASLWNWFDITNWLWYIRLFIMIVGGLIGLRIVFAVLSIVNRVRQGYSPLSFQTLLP
Chain of 89.6 Env (Q73372 509-719 partner limits assumed): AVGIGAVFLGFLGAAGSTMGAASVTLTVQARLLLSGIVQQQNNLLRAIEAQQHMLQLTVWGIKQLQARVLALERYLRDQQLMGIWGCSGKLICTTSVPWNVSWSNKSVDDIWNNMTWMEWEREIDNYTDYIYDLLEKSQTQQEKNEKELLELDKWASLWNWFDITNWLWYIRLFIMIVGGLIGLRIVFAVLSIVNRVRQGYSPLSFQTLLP

[2] = biological target: T2, binding of HIV-1 IIIB gp120 to CD4 (Human immunodeficiency virus type 1 group M subtype B, UniProt P04578); experiment: gp120-CD4 binding assay (ELISA); settings: 1 hr at room temperature
T2 construct: The recombinant IIB gp120 protein (baculovirus-expressed) was obtained from Intracel; purchased Intracel (Cambridge, Mass.) for gp120; host or cells: baculovirus-expressed (gp120)
Experimental: To investigate the possible effect of porphyrin compounds on binding of HIV-1 IIIB gp120 to CD4, a gp120 CD4 binding assay was developed. The assay was developed as a modification of a capture gp120 ELISA kit (Intracel Corporation). Briefly, a 96-well plate was coated with soluble CD4 and 0.5 μg of HIV-1 IIIB gp120 per well was incubated in the presence or absence of test compounds for 1 hr at room temperature. After four washes with buffer to remove unbound proteins, the bound gp120 was detected by anti-gp120 peroxidase-conjugated antibodies and quantitated by the protocol provided by the manufacturer.

IIIB Env of HIV 1 = IIIB Env of HIV 1 (Human immunodeficiency virus type 1 group M subtype B, UniProt P03375); type: cell-based

Molecule | inactivating HSVs (HSV-1(F) or HSV-2(G)) | inhibition of HIV-1 IIIB (percent virus inactivated), screening assay (HIV-1 IIIB) | Presence of nuclei in syncytia, pIIIenv X4, 6 h [1] | Presence of nuclei in syncytia, VV89.6 envt X4, 23 h (89.6 Env) | further results
Cc1cc(C)c(S(=O)(=O)O)c(C)c1-c1c2nc(c(-c3c(C)cc(C)c(S(=O)(=O)O)c3C)c3ccc([n-]3)c(-c3c(C)cc(C)c(S(=O)(=O)O)c3C)c3nc(c(-c4c(C)cc(C)c(S(=O)(=O)O)c4C)c4ccc1[n-]4)C=C3)C=C2.[Co+2] [TMPS,Co] | active | about 80% |  |  | 
O=C(O)c1ccc(-c2c3nc(c(-c4ccc(C(=O)O)cc4)c4ccc([nH]4)c(-c4ccc(C(=O)O)cc4)c4nc(c(-c5ccc(C(=O)O)cc5)c5ccc2[nH]5)C=C4)C=C3)cc1 [TPPC4] | active |  |  |  | 
O=S(=O)(O)c1ccc(-c2c3nc(c(-c4ccc(S(=O)(=O)O)cc4)c4ccc([nH]4)c(-c4ccc(S(=O)(=O)O)cc4)c4nc(c(-c5ccccc5)c5ccc2[nH]5)C=C4)C=C3)cc1.[Cu] [TPPS3,Cu] | active |  |  |  | 
O=S(=O)(O)c1ccc(-c2c3nc(c(-c4ccc(S(=O)(=O)O)cc4)c4ccc([nH]4)c(-c4ccc(S(=O)(=O)O)cc4)c4nc(c(-c5ccccc5)c5ccc2[nH]5)C=C4)C=C3)cc1.[Zn] [TPPS3,Zn] | active |  |  |  | 
O=S(=O)(O)c1ccc(-c2c3nc(c(-c4ccc(S(=O)(=O)O)cc4)c4ccc([nH]4)c(-c4ccc(S(=O)(=O)O)cc4)c4nc(c(-c5ccc(S(=O)(=O)O)cc5)c5ccc2[nH]5)C=C4)C=C3)cc1 [TPPS4, mesotetra(4-sulfonatophenyl)porphine] |  | 93% | − | −/4+ (key: 4+: more than 50% of nuclei are in syncytia; 3+: 30 to 50% of nuclei are in syncytia; 2+: 30 to 10% of nuclei are in syncytia; +: less than 10% of nuclei are in syncytia; −: no syncytia were observed) | Presence of nuclei in syncytia, VV89.6 envt R5, 23 h (89.6 Env): 1+/4+ (key: 4+: more than 50% of nuclei are in syncytia; 3+: 30 to 50% of nuclei are in syncytia; 2+: 30 to 10% of nuclei are in syncytia; +: less than 10% of nuclei are in syncytia; −: no syncytia were observed); Presence of nuclei in syncytia, VV89.6 envt X4, 6 h (89.6 Env): −/4+
O=S(=O)(O)c1ccc(C2=C3C=CC(=N3)[C-](c3ccc(S(=O)(=O)O)cc3)C3=NC(=C(c4ccc(S(=O)(=O)O)cc4)c4[cH-]cc(n4)C(c4ccc(S(=O)(=O)O)cc4)=C4C=CC2=N4)C=C3)cc1.[Cu+2] (stereo not shown) [TPPS4,Cu] | active | 97% | − |  | inhibition of gp120/CD4 binding [2]: 80-100%; inhibition of HIV-induced cell fusion in words (IIIB Env of HIV 1): Complete inhibition; activity against HIV in words (HIV-1 IIIB): intermediate levels of activity
O=S(=O)(O)c1ccc(-c2c3nc(c(-c4ccc(S(=O)(=O)O)cc4)c4ccc([n-]4)c(-c4ccc(S(=O)(=O)O)cc4)c4ccc([n-]4)c(-c4ccc(S(=O)(=O)O)cc4)c4nc2C=C4)C=C3)cc1.[Ni+2] [TPPS4,Ni] |  |  |  | −/3+ (key: 4+: more than 50% of nuclei are in syncytia; 3+: 30 to 50% of nuclei are in syncytia; 2+: 30 to 10% of nuclei are in syncytia; +: less than 10% of nuclei are in syncytia; −: no syncytia were observed) | Presence of nuclei in syncytia, VV89.6 envt R5, 6 h (89.6 Env): −/1+; Presence of nuclei in syncytia, VV89.6 envt X4, 6 h (89.6 Env): −/3+
O=S(=O)(O)c1ccc(-c2c3nc(c(-c4ccc(S(=O)(=O)O)cc4)c4ccc([n-]4)c(-c4ccc(S(=O)(=O)O)cc4)c4nc(c(-c5ccc(S(=O)(=O)O)cc5)c5ccc2[n-]5)C=C4)C=C3)cc1.[Pd+2] [TPPS4,Pd] |  |  | − | −/4+ (key: 4+: more than 50% of nuclei are in syncytia; 3+: 30 to 50% of nuclei are in syncytia; 2+: 30 to 10% of nuclei are in syncytia; +: less than 10% of nuclei are in syncytia; −: no syncytia were observed) | Presence of nuclei in syncytia, VV89.6 envt R5, 6 h (89.6 Env): −/4+; Presence of nuclei in syncytia, VV89.6 envt R5, 23 h (89.6 Env): −/4+ (key: 4+: more than 50% of nuclei are in syncytia; 3+: 30 to 50% of nuclei are in syncytia; 2+: 30 to 10% of nuclei are in syncytia; +: less than 10% of nuclei are in syncytia; −: no syncytia were observed); Presence of nuclei in syncytia, VV89.6 envt X4, 6 h (89.6 Env): −/4+
O=S(=O)(O)c1ccc(-c2c3nc(c(-c4ccc(S(=O)(=O)O)cc4)c4ccc([nH]4)c(-c4ccc(S(=O)(=O)O)cc4)c4nc(c(-c5ccc(S(=O)(=O)O)cc5)c5ccc2[nH]5)C=C4)C=C3)cc1.[Zn] [TPPS4,Zn] | active |  |  |  | 
O=S(=O)(O)c1ccc(Cl)c(-c2c3nc(c(-c4c(Cl)ccc(S(=O)(=O)O)c4Cl)c4ccc([nH]4)c(-c4c(Cl)ccc(S(=O)(=O)O)c4Cl)c4nc(c(-c5c(Cl)ccc(S(=O)(=O)O)c5Cl)c5ccc2[nH]5)C=C4)C=C3)c1Cl [tetrakis(2,6dichlorosulfonatonatophenyl)porphyrin] | active |  |  |  | 
sulfonated 2,6-difluoroTPP [TPP(2,6-F2)S] | active |  | − | 1+/4+ (key: 4+: more than 50% of nuclei are in syncytia; 3+: 30 to 50% of nuclei are in syncytia; 2+: 30 to 10% of nuclei are in syncytia; +: less than 10% of nuclei are in syncytia; −: no syncytia were observed) | inhibition of gp120/CD4 binding in words [2]: completely inhibit binding; Presence of nuclei in syncytia, VV89.6 envt R5, 23 h (89.6 Env): 1+/4+ (key: 4+: more than 50% of nuclei are in syncytia; 3+: 30 to 50% of nuclei are in syncytia; 2+: 30 to 10% of nuclei are in syncytia; +: less than 10% of nuclei are in syncytia; −: no syncytia were observed); activity against HIV in words (HIV-1 IIIB): most active
sulfonated 2-fluoroTPP [TPP2FS] | active | about 80% | − | 1+/4+ (key: 4+: more than 50% of nuclei are in syncytia; 3+: 30 to 50% of nuclei are in syncytia; 2+: 30 to 10% of nuclei are in syncytia; +: less than 10% of nuclei are in syncytia; −: no syncytia were observed) | inhibition of gp120/CD4 binding [2]: 81%; Presence of nuclei in syncytia, VVenvl X4, 6 h (IIIB Env of HIV 1): −/4+; Presence of nuclei in syncytia, VVenvl X4, 23 h (IIIB Env of HIV 1): −/4+ (key: 4+: more than 50% of nuclei are in syncytia; 3+: 30 to 50% of nuclei are in syncytia; 2+: 30 to 10% of nuclei are in syncytia; +: less than 10% of nuclei are in syncytia; −: no syncytia were observed); Presence of nuclei in syncytia, VV89.6 envt R5, 6 h (89.6 Env): 4+/4+ (key: 4+: more than 50% of nuclei are in syncytia; 3+: 30 to 50% of nuclei are in syncytia; 2+: 30 to 10% of nuclei are in syncytia; +: less than 10% of nuclei are in syncytia; −: no syncytia were observed); Presence of nuclei in syncytia, VV89.6 envt R5, 23 h (89.6 Env): 4+/4+ (key: 4+: more than 50% of nuclei are in syncytia; 3+: 30 to 50% of nuclei are in syncytia; 2+: 30 to 10% of nuclei are in syncytia; +: less than 10% of nuclei are in syncytia; −: no syncytia were observed)
sulfonated 4-chloroTPP [TPP4ClS] |  | about 97% |  |  | inhibition of gp120/CD4 binding [2]: 85%; activity against HIV in words (HIV-1 IIIB): most active
tetrakis(2-chlorosulfonatophenyl)porphyrin | active |  |  |  | 
tetrakis(2-fluorosulfonatonatophenyl)porphyrin,Cu | active |  |  |  | 
